T1: thermosome α subunit with a (His)6-tag downstream Lys144 (αK144Ht) (Thermoplasma acidophilum, UniProt P48424 1-545)
T1 construct: thermosome α subunit, Thermoplasma acidophilum, P48424; synthetic gene (Invitrogen) with six histidines inserted downstream of Lys144, in the loop between beta sheet β4 and alpha helix α6; Eight copies stand in the α8/β8 hexadecamer; also called K144-(His)6 α-subunit; (His)6-tagged α subunit; source: E. coli BL21(DE3) Codon Plus-RIL, co-expressed with the β subunit from the construct …
T1 sequence: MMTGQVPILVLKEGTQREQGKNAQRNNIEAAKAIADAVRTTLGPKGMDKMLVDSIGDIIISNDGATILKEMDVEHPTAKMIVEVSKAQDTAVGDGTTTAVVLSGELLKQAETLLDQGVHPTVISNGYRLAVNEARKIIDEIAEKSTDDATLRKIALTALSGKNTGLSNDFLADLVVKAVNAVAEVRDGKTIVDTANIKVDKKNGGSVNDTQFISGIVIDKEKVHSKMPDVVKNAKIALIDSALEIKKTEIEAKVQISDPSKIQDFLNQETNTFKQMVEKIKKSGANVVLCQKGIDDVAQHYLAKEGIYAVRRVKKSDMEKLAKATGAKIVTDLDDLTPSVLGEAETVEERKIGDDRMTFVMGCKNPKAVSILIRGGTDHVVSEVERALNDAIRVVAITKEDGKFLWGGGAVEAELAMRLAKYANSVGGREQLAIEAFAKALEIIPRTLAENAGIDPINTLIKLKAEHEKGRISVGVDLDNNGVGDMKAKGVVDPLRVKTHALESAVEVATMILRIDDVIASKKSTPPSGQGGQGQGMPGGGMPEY


What was measured:
[1] = target: T2, (His)6-tagged α8/β8 thermosome (Ht thermosome, αK144Ht) (Thermoplasma acidophilum, UniProt P48424+P48425); assay: coupled enzymatic steady-state ATPase assay; assay type: biochemical; conditions: 55 °C; tighter site of a two-site fit; read-out: KM1
T2 construct: gene thsA; full-length alpha with internal His6 inserted after Lys144, untagged beta; co-expressed in E. coli; α8/β8 hexadecamer, about 960 kDa

[2] = target: T1, thermosome α subunit with a (His)6-tag …; assay: SEC; peak from the affinity column run on Superose 6 (or HiLoad 26/600 Superdex 200) in 25 mM TrisHCl, 150 mM NaCl, 5 mM EDTA pH 7.5, room temperature; single peak of about 960 kDa to 1 MDa (hexadecamer); SDS-PAGE of the peak; subunits co-expressed and co-purified; conditions: both partners purified

Km [1] | stoichiometry N [2] | Molecule
15 µM | – | Nc1ncnc2c1ncn2[C@@H]1O[C@H](COP(=O)(O)OP(=O)(O)OP(=O)(O)O)[C@@H](O)[C@H]1O [ATP]
– | 1 α:β ratio | thermosome β subunit (natural protein, Thermoplasma acidophilum, thermosome β subunit, Thermoplasma acidophilum, P48425; untagged; Eight copies stand in the α8/β8 hexadecamer; also called un-tagged β-subunit; source: E. coli BL21(DE3) Codon Plus-RIL, co-expressed in tandem with the α subunit (αK144HTTherm or pETTherm α/β); in lysate, then purified with the complex) MIAGQPIFILKEGTKRESGKDAMKENIEAAIAISNSVRSSLGPRGMDKMLVDSLGDIVITNDGVTILKEMDVEHPAAKMMVEVSKTQDSFVGDGTTTAVIIAGGLLQQAQGLINQNVHPTVISEGYRMASEEAKRVIDEISTKIGADEKALLLKMAQTSLNSKSASVAKDKLAEISYEAVKSVAELRDGKYYVDFDNIQVVKKQGGAIDDTQLINGIIVDKEKVHPGMPDVVKDAKIALLDAPLEIKKPEFDTNLRIEDPSMIQKFLAQEENMLREMVDKIKSVGANVVITQKGIDDMAQHYLSRAGIYAVRRVKKSDMDKLAKATGASIVSTIDEISSSDLGTAERVEQVKVGEDYMTFVTGCKNPKAVSILVRGETEHVVDEMERSITDSLHVVASALEDGAYAAGGGATAAEIAFRLRSYAQKIGGRQQLAIEKFADAIEEIPRALAENAGLDPIDILLKLRAEHAKGNKTYGINVFTGEIEDMVKNGVIEPIRVGKQAIESATEAAIMILRIDDVIATKSSSSSSNPPKSGSSSESSED
